Experimental data: patent publication US20100297673A1, “METHODS AND COMPOSITIONS FOR UPREGULATION OF PEROXIREDOXIN ACTIVITY” (Reddy US Therapeutics, priority 2006, published 2010)
Blank lines part the entries; values can stand above or below the compound they belong to.

Assays:
[1] = in vivo; cited from earlier work
[2] = system: Human Aortic Smooth Muscle cells; assay: Cellular peroxide levels (Amplex Red Kit); type: cell-based; conditions: 3 uM compound, 30 min pre-incubation then 1 hour in growth media, cell lysates
Experimental: H2O2 levels in human aortic smooth muscle cells (Rockland, Me. Clonetics, catalog #CC-2535) were measured using Amplex Red Kit (Molecular Probes). Smooth muscle cells were cultured in Clonetics growth media containing 5% fetal bovine serum. Cells at 70 percent confluence were starved overnight in serum free media and incubated for further 30 min in serum free media alone (control) or medium containing […] compound A (treatment) for 30 minutes. Growth media containing serum was then added and incubated for one hour. The cells were then lysed and H2O2 was assayed in lysates using Amplex Red Kit (Molecular Probes).
To establish that compound mediated activation of Peroxiredoxin will result in decreased H2O2, H2O2 levels were measured in untreated (control) and compound A treated smooth muscle cells (See FIG. 16). Human Aortic Smooth Muscle cells at 70 percent confluence were starved overnight in basal media and incubated for further 30 min in basal medium alone (control) or medium containing 3 uM compound (treatment) for 30 minutes. Growth media was then added to the control sample and growth media plus compound was added to the treatment group and incubated for one hour. The cells were then lysed and H2O2 was assayed in lysates using Amplex Red Kit (Molecular Probes).

LDL-receptor null mice = assay: Hyperlipidemia model, LDL-receptor null mice on cholesterol diet; type: in vivo; conditions: 100 mg/kg oral once a day, 15 days, plasma, vs vehicle
Experimental: First, 14 week old LDL-receptor null mice were fed with a diet containing 0.8% cholesterol, 0.1% cholic acid and 20% coconut oil and once a day orally dosed with carboxymethyl cellulose suspension alone Compound A at 100 mg/kg (in carboxymethyl cellulose suspension) for 15 days. At the end of the study, plasma levels of cholesterol and triglycerides were determined using an enzymatic method (INFINITY™ Sigma Diagnostics).

[3] = system: apolipoprotein E-null mice; assay: Hyperlipidemia model, apolipoprotein E-null mice; type: in vivo; conditions: 100 mg/kg oral once a day, 14 days, plasma, vs vehicle
Experimental: Second, 8 week old apolipoprotein E-null mice were fed with normal chow diet and once a day orally dosed with carboxymethyl cellulose suspension alone or Compound A at 100 mg/kg (in carboxymethyl cellulose suspension) for 14 days. At the end of the study, plasma levels of cholesterol and triglycerides were determined.

Peroxiredoxin = Peroxiredoxin activity assay (NADPH oxidation coupled to H2O2 reduction); type: biochemical; conditions: addition to liver cells (FIG. 3); assay method states 500 nM compound A
Experimental: An in vitro assay was developed to identify compounds that activated Peroxiredoxin (Peroxiredoxin inducers). In a 96-well plate, Peroxiredoxin (0.1 μg) was incubated with 5 μM of an unknown candidate compound and mixed with Hepes buffer containing NADPH, thioredoxin, thioredoxin reductase and hydrogen peroxide. When hydrogen peroxide was reduced by the activated Peroxiredoxin, the quantitative indicator, NADPH was converted to NADP. A decrease in NADPH was monitored by determining the absorption at […]. A decrease in NADPH was therefore, indicative of a Peroxiredoxin inducer.
Peroxiredoxin-mediated reduction of H2O2 was coupled to oxidation of NADPH oxidation. NADPH oxidation was monitored as a decrease in absorbance at 340 nm (A340). The control reaction contained 50 mM Hepes-NaOH (pH 7.0), 1 mM EDTA, 2 μM thioredoxin, 150 nM thioredoxin reductase, H2O2 (8.8 mM), NADPH ([…]), and Peroxiredoxin (1 μM). The treatment group in addition contained 500 nM of compound A. The reaction was incubated for 30 seconds to 10 minutes and the change in absorbance was monitored.

TNF-α = assay: LPS-induced acute inflammation in rats, serum TNF-α ELISA; type: in vivo, Sprague Dawley rats; conditions: 60 mg/kg oral, LPS 1 mg/kg i.p., serum 1 hour after LPS
Experimental: The compound A was orally administrated (60 mg/kg) to female Sprague Dawley rats followed by intraperitoneal administration lipopolysaccharide (LPS−1 mg/kg). Blood samples were collected 1 hour after LPS administration. TNF-α level in the serum was analyzed by using ELISA.

VCAM-1 = VCAM-1 ELISA in TNFα-induced endothelial cells; type: cell-based; conditions: Homo sapiens, Endothelial cell, 0.5 ng/ml TNFα, overnight, read-out: inhibition of VCAM-1 levels
Experimental: Endothelial cell surface VCAM-1 was measured following compound A treatments. The cell layer was washed once with PBS and fixed with methanol. After fixing the cells, VCAM-1 expression was detected with the primary VCAM-1 antibody (goat-anti-Human VCAM-1 antibody—catalog# BBA19, R&D Systems) and secondary anti-goat antibody conjugated to horse radish peroxidase. Colorimetric measurements with made with the Multiskan Ascent plate reader.
(§1) TNF-alpha (TNFα) (R&D Systems, Minneapolis, Minn., Catalogue No. 210-TA-010) is a pro-inflammatory cytokine implicated in the development of cardiovascular disease. Inflammatory markers produced in response to TNFα include monocyte chemoattractant protein—MCP-1, and vascular cell adhesion molecule—VCAM-1. Endothelial cells are known to produce these markers in response TNFα. To determine whether compound mediating the activation of Peroxiredoxin will result in decreased inflammation, MCP-1 and VCAM-1 levels were measured in TNFα-induced endothelial cells. Cells were stimulated with 0.5 ng/ml of TNFα with or without compound A in basal media supplemented with 1% FBS. Each treatment condition was done in triplicate. […] After fixing the cells, VCAM-1 expression was detected with the primary and secondary antibodies. Colorimetric measurements with made with the Multiskan Ascent plate reader.

MCP-1 = MCP-1 ELISA in TNFα-induced endothelial cells; type: cell-based; conditions: Homo sapiens, Endothelial cell, 0.5 ng/ml TNFα, overnight, read-out: inhibition of MCP-1 levels
Experimental: MCP-1 ELISA is carried out using Quantikine Human MCP-1 kit as described by manufacturer (R&D Systems, Minneapolis, Minn., Catalog #DY279E). Mouse anti-human MCP-1 was used as the capture antibody and HRP-conjugated goat anti-human MCP-1 (Zymed (now part of Invitrogen) catalog #81-1620, Carlsbad, Calif.) was used as the detection antibody. Culture media were incubated with capture antibody (in 96 well) for 2 hours at room temperature. Wells were washed three times with wash buffer (0.05% tween-20 in phosphate buffered saline (PBS) pH 7.4) followed by incubation with detection antibody for 2 hours at room temperature. Color development was read at 450 nm in a Microplate reader.
as §1, with “Endothelial cells are known to produce these markers in response TNFα.” left out, “cells.” for “cells. Cells were stimulated with 0.5 ng/ml of TNFα with or without compound A in basal media supplemented with 1% FBS. Each treatment condition was done in triplicate.”

HepG2 cells [4] = assay: Real time-PCR gene expression in HepG2 cells; type: cell-based, human
Experimental: HepG2 cells were prepared from the T-75 flasks and were used to seed the 24-well plates with 1.6×10^5 cells per well per 1 ml of growth media. The next day, the media was removed and 1 ml of low-serum growth media was added to each well for 24 hours. The following day, the low-serum media was removed. In selected experiments, cells were treated with 100 uM H2O2 or si-Peroxiredoxin I. Media was removed and cells were lysed with the lysis buffer from the Ambion RNAqueous kit and plate was placed on ice. RNA was extracted using the kit according to the protocol. The RNA was quantitated using a spectrophotometer and frozen at −80° C. The next day, the RNA was used for real-time PCR. The RNA was thawed and master mixes for each primer were prepared with the Stratagene Full Velocity SYBR Green QRT-PCR Master Mix. Master Mix with primer was added to the appropriate wells then RNA was added to appropriate wells. […]
HepG2 cells were grown in T-75 flasks prior to study. […] Total cholesterol and apoB levels were measured using an enzymatic assay. Percentage change was evaluated by comparing to both the baseline and the vehicle at the end of the study. […] RNA was isolated according to the manufacturer's protocol (Qiagen) and analyzed for changes in gene expression normalized to actin using RT-PCR. […]

HepG2 cells [5] = assay: Dil-LDL uptake assay in HepG2 cells; type: cell-based, human
Experimental: Glass cover slips were autoclaved and aseptically transferred to 6-well tissue culture plates in a tissue culture hood. HepG2 cells were prepared from the T-75 flasks and were used to seed the 6-well plates (containing sterile cover slips) with 7.5×10^5 cells per well per 1 ml of growth media. The following day, the media was removed and the wells were washed 3 times with 2 mL DMEM+10% DLCS very gently. After washes, 2 ml of DMEM+10% (DLCS) was added to the wells and treatments continued for 24 hours. In selected experiments, cells were treated with 100 uM H2O2, control IgG or perlecan antibodies. The next day, the media was not changed and Dil LDL and DAPI were added to wells for uptake (5 hours). After the uptake was completed, the wells were washed gently 3 times with PBS (2 mL/well/wash) and after last wash, cells were fixed with 1 mL of 4% formaldehyde in PBS for 20 minutes. Wells were washed 5 times with water in excess. Cover slips were then mounted to slides using clearmount. Slides were stored at −20° C. The slides were imaged using the Nikon microscope and ColdSNAP-Pro camera. […] Images were quantitated using Image Pro-Plus software. The intensity per area of the fluorescent label was quantitated using the software and was used to generate the figure which is LDL uptake per area as a percent of the control.

Stat1 = Stat1 activity assay (Stat1-luciferase reporter); type: cell-based, human; conditions: HepG2 transfected with Stat1-luciferase
Experimental: HepG2 cells were prepared from the T-75 flasks and were used to seed the 24-well plates with 7.6×10^4 cells per well per 0.5 ml of DMEM+10% FBS. The next day, Stat1-lucuferase transfections were set up with Fugene6 according to the manufacturer's directions. In brief, transfection mixtures were prepared in DMEM in separate tubes from the reporter constructs also in DMEM. The samples incubated for 5 minutes at room temperature. Then, the constructs were mixed with the Fugene6 and incubated again for 30 minutes at room temperature. Then 50 μl transfection mix was added to each well in the existing media. Cells were allowed to incubate over night. In selected experiments, cells were treated with 100 uM H2O2 as well as with siPRDX1. After treatment, cells were lysed with the Promega lysis buffer. The wells were scraped and lysates were transferred into pre-chilled tubes and the lysates were cleared via centrifugation. 20 μl of cleared lysate was added to wells in 96 well clear plates and 100 μl of luciferase assay buffer was added to wells. Relative light units were counted using the PerkinElmer Envision.
HepG2 were transiently transfected with a Stat1-luciferase reporter construct and subject to treatment with either H2O2 or siPeroxiredoxin 1. Bars show the mean±SD. Asterisks indicate statistical difference from the Mock group with significance values of p<0.05. […]

SMILES: O=C1[C@H](CC[C@H](O)c2ccc(F)cc2)[C@@H](c2ccc(O)cc2)N1c1ccc(F)cc1 [Ezetimibe]
cholesterol lowering [1]: 15-18%

SMILES: COc1ccc(Nc2nc(NC3CCCCCC3)nc(N3CCC(OC(=O)CCC(=O)O)CC3)n2)cc1Cl [Compound A]
decrease in H2O2 levels vs untreated control [2]: approximately 77% | LDL cholesterol (LDL-receptor null mice): reduction | VLDL cholesterol (LDL-receptor null mice): reduction | total cholesterol (LDL-receptor null mice): reduction | triglycerides (LDL-receptor null mice): reduction | total triglycerides [3]: reduction | increase in Peroxiredoxin activity over controls (Peroxiredoxin): 48% | inhibition of LPS-induced TNFα elevation (TNF-α): completely inhibited | serum TNFα level (TNF-α): undetectable | inhibition at 2.5 µM (VCAM-1): 75% | inhibition at 2.5 µM (MCP-1): 75%

Stat1 driven luciferase expression (Stat1): significantly enhanced
SMILES: OO [Compound H2O2, hydrogen peroxide]
LDLr mRNA levels (HepG2 cells [4]): did not have a significant effect | perlecan expression levels (HepG2 cells [4]): significantly reduced | LDL uptake by liver cells (HepG2 cells [5]): significantly decreased
